Molecules are shown by their SMILES. Where two headings read alike, the source gives them in different places.

Format in all cases: in vivo
For data set [1], the system named is Cabbage Looper (Trichoplusia ni, TRIPNI) ("CL"). Briefly: Bioassays on Cabbage Looper (CL), 128-well diet tray assay. To be noted: Trichoplusia ni, 168 h, read-out: CL % Control (or Mortality) rating. On the procedure:
(§1) Certain molecules disclosed in this document were tested against BAW and CEW using procedures described in the following examples. In the reporting of the results, the “BAW & CL Rating Table” was used (See Table Section).
Bioassays on CL were conducted using a 128-well diet tray assay. one to five second instar CL larvae were placed in each well (3 mL) of the diet tray that had been previously filled with 1 mL of artificial diet to which 50 μg/cm^2 of the test compound (dissolved in 50 μL of 90:10 acetone-water mixture) had been applied (to each of eight wells) and then allowed to dry. Trays were covered with a clear self-adhesive cover and held at 25° C., 14:10 light-dark for five to seven days. Percent mortality was recorded for the larvae in each well; activity in the eight wells was then averaged. The results are indicated in the table entitled “Table ABC: Biological Results” (See Table Section).

The subject of data set [2] is Beet Armyworm (Spodoptera exigua, LAPHEG) ("BAW"). The data set can be described thus: Bioassays on Beet Armyworm (BAW), 128-well diet tray assay. The conditions noted are these: Spodoptera exigua, 168 h, read-out: BAW % Control (or Mortality) rating. The procedure:
as §1
Bioassays on BAW were conducted using a 128-well diet tray assay. one to five second instar BAW larvae were placed in each well (3 mL) of the diet tray that had been previously filled with 1 mL of artificial diet to which 50 μg/cm^2 of the test compound (dissolved in 50 μL of 90:10 acetone-water mixture) had been applied (to each of eight wells) and then allowed to dry. Trays were covered with a clear self-adhesive cover and held at 25° C., 14:10 light-dark for five to seven days. Percent mortality was recorded for the larvae in each well; activity in the eight wells was then averaged. The results are indicated in the table entitled “Table ABC: Biological Results” (See Table Section).

Data set [3] deals with Yellow Fever Mosquito (Aedes aegypti, AEDSAE) ("YFM"). The conditions noted are these: about 1 day-old larvae, 4000 ppm master solution diluted, 3 days, room temperature. The procedure: Certain molecules disclosed in this document were tested against YFM using procedures described in the following paragraph. In the reporting of the results, the “YFM Rating Table” was used (See Table Section).
Master plates containing 400 μg of a molecule dissolved in 100 μL of dimethyl sulfoxide (DMSO) (equivalent to a 4000 ppm solution) are used. A master plate of assembled molecules contains 15 μL per well. To this plate, 135 μL of a 90:10 water:acetone mixture is added to each well. A robot (Biomek® NXP Laboratory Automation Workstation) is programmed to dispense 15 μL aspirations from the master plate into an empty 96-well shallow plate (“daughter” plate). There are 6 reps (“daughter” plates) created per master. The created daughter plates are then immediately infested with YFM larvae.
The day before plates are to be treated, mosquito eggs are placed in Millipore water containing liver powder to begin hatching (4 g. into 400 mL). After the daughter plates are created using the robot, they are infested with 220 μL of the liver powder/larval mosquito mixture (about 1 day-old larvae). After plates are infested with mosquito larvae, a non-evaporative lid is used to cover the plate to reduce drying. Plates are held at room temperature for 3 days prior to grading. After 3 days, each well is observed and scored based on mortality.

Where [4] appears, read: second instar BAW larvae, 50 μg/cm^2 on artificial diet, five to seven days, 25° C.

One may read the mortality as the share of the test organisms that died. As for `COc1ccccc1-c1cccc(C(=S)Nc2ccc(-c3ncn(-c4ccc(OC(F)(F)F)cc4)n3)cc2)c1` [F21, 2′-Methoxy-N-(4-(1-(4-(trifluoromethoxy)phenyl)-1H-1,2,4-triazol-3-yl)phenyl)-[1,1′-biphenyl]-3-carbothioamide], the mortality at 50 µg/cm2 in data set [1] and in data set [2] (setting [4]) was 50 to 100% each time. Moreover, the “YFM % Control (or Mortality) rating” value in data set [3] is “A (80-100)”.
Take `Cc1cccc(C)c1-c1cccc(C(=O)Nc2ccc(-c3ncn(-c4ccc(OC(F)(F)C(F)(F)F)cc4)n3)cc2)c1` [F31, 2′,6′-Dimethyl-N-(4-(1-(4-(perfluoroethoxy)phenyl)-1H-1,2,4-triazol-3-yl)phenyl)-[1,1′-biphenyl]-3-carboxamide]: the mortality at 50 µg/cm2 in data set [1] and in data set [2] (setting [4]) was 50 to 100% each time. Also, in data set [3], the “YFM % Control (or Mortality) rating” value is listed as “D (No activity noticed in this bioassay)”.
As for `Cc1ccc(-c2cccc(C(=O)Nc3ccc(-c4ncn(-c5ccc(OC(F)(F)F)cc5)n4)cc3)n2)c(C)c1` [F2, 6-(2,4-Dimethylphenyl)-N-(4-(1-(4-(trifluoromethoxy)phenyl)-1H-1,2,4-triazol-3-yl)phenyl)picolinamide], the mortality at 50 µg/cm2 in data set [1] was 0%; in data set [2] (setting [4]) it was 0 to 50%. The “YFM % Control (or Mortality) rating” value in data set [3] is on record as “D (No activity noticed in this bioassay)”.
The like results for `CCCN(C(=O)c1ccc(F)c(-c2ccccc2OC)c1)c1ccc(-c2ncn(-c3ccc(OC(F)(F)F)cc3)n2)cc1` [F65, 6-Fluoro-2′-methoxy-N-propyl-N-(4-(1-(4-(trifluoromethoxy)phenyl)-1H-1,2,4-triazol-3-yl)phenyl)-[1,1′-biphenyl]-3-carboxamide] were, in that order, 50 to 100%, 50 to 100% and “D (No activity noticed in this bioassay)”.
With `O=C(Nc1ccc(-c2ncn(-c3ccc(OC(F)(F)F)cc3)n2)cc1)c1cc(F)cc(-c2ccccc2)c1` [F25, 5-Fluoro-N-(4-(1-(4-(trifluoromethoxy)phenyl)-1H-1,2,4-triazol-3-yl)phenyl)-[1,1′-biphenyl]-3-carboxamide], the mortality at 50 µg/cm2 in data set [1] and in data set [2] was 50 to 100% each time. The “YFM % Control (or Mortality) rating” value in data set [3] was “D (No activity noticed in this bioassay)”.
As for `Cc1ccccc1-c1cc(C(=O)NCCc2ccc(-c3ncn(-c4ccc(OC(F)(F)F)cc4)n3)cc2)ccc1F` [F53, 6-Fluoro-2′-methyl-N-(4-(1-(4-(trifluoromethoxy)phenyl)-1H-1,2,4-triazol-3-yl)phenethyl)-[1,1′-biphenyl]-3-carboxamide], the mortality at 50 µg/cm2 in data set [1] and in data set [2] (setting [4]) was 50 to 100% each time. In addition, the “YFM % Control (or Mortality) rating” value in data set [3] is reported as “A (80-100)”.
Regarding `COc1ccccc1-c1cc(C(=O)Nc2ccc(-c3ncn(-c4ccc(OC(C)C)cc4)n3)cc2)ccc1F` [F4, 6-Fluoro-N-(4-(1-(4-isopropoxyphenyl)-1H-1,2,4-triazol-3-yl)phenyl)-2′-methoxy-[1,1′-biphenyl]-3-carboxamide], the mortality at 50 µg/cm2 in data set [1] and in data set [2] (setting [4]) was 50 to 100% each time. Moreover, in data set [3], the “YFM % Control (or Mortality) rating” value is “B (More than 0-Less than 80)”.
For `O=C(Nc1ccc(-c2ncn(-c3ccc(OC(F)(F)F)cc3)n2)cc1)c1ccc(F)c(-c2ccccc2)c1` [F11, 6-Fluoro-N-(4-(1-(4-(trifluoromethoxy)phenyl)-1H-1,2,4-triazol-3-yl)phenyl)-[1,1′-biphenyl]-3-carboxamide], the mortality at 50 µg/cm2 in data set [1] and in data set [2] (setting [4]) was 50 to 100% each time. Moreover, the “YFM % Control (or Mortality) rating” value in data set [3] was “D (No activity noticed in this bioassay)”.
For the compound `COc1ccccc1-c1cccc(C(=S)Nc2ccc(-c3ncn(-c4ccc(OC(F)(F)C(F)(F)F)cc4)n3)cc2)c1` [F23, 2′-methoxy-N-(4-(1-(4-(perfluoroethoxy)phenyl)-1H-1,2,4-triazol-3-yl)phenyl)-[1,1′-biphenyl]-3-carbothioamide], the mortality at 50 µg/cm2 in data set [1] and in data set [2] (setting [4]) was 50 to 100% each time. Moreover, the “YFM % Control (or Mortality) rating” value in data set [3] is “A (80-100)”.

For the origin of these results see patent US9550739B2, “Molecules having certain pesticidal utilities, and intermediates, compositions, and processes related thereto” (priority 2014, dated 2017).
